Measured values: US20070275025A1, “Combustible Mosquito Coil or Stick” (RECKITT BENCKISER (AUSTRALIA) PTY LIMITED, priority 2003, published 2007)
Like-named read-outs stand apart in the source and are kept apart here.

Tests used:
[1] = cited from earlier work
[2] = test system: Aedes aegypti; experiment: Burning coil trial in ventilated 20 cubic metre test chamber with human subject: landing/bite inhibition, knockdown, 24 hour mortality; assay type: in vivo; conditions: for % KD (15 mins) / 24 hour % mortality (15 mins exposure): 15 minutes exposure; for 24 hour % mortality (15 mins exposure): dead after 24 hours; for % bite inhibition / % landing inhibition: assessed 10 to 15 minutes exposure
Experimental: A combustible coil according to the present invention containing bifenthrin was compared with coils containing other pyrethroid active ingredients (d-allethrin, d-phenothrin, imiprothrin, permethrin, cypermethrin, bioresmethrin, deltamethrin) as indicated in Table 2. All coils contained active ingredients in an amount that rendered them similar in cost to the current leading d-allethrin coils. The range of actives covered both knockdown and residual pyrethroids. The trial was carried out against the Dengue mosquito (Aedes aegypti). The methodology employed is as follows:
The study was conducted in a ventilated test chamber (20 cubic metres) at a temperature of between 27° C. and 28.7° C. The relative humidity was ambient and ranged from 51% to 58%.
Mixed sex adult 6 to 10 day old Dengue mosquitoes (Aedes aegypti) were used in this study. There were 50 female mosquitoes released per replicate and a variable number of male mosquitoes. The mosquitoes were collected and immobilised. Male and female mosquitoes were added to a container until 50 female mosquitoes were obtained. Because only female mosquitoes bite human subjects, the number of males present in each trial was irrelevant. The mosquitoes were allowed to recover for at least one hour before being used for testing.
A positive air flow of 0.4 metres/second was generated into the chamber and air was passively vented from the chamber.
Coil treatments were placed on the floor in the test chamber, and were allowed to burn for 5 minutes before all mosquitoes were brought into the chamber and released. The coils continued to operate during the assessments and were stopped at the completion of the test period.
Starting from 10 minutes after the mosquitoes were released, an assessment was made by one human subject of the mosquito landings and bites over a 5 minute period. Whilst seated in the chamber, the subject recorded the total number of females that initiated a bite on the subject's legs, as well as the number of females that landed without initiating biting. Mosquitoes were permitted to probe the subject but not permitted to bite the subject, and were chased away prior to this occurring.
Immediately after the 5 minute assessment period, the number of knocked down mosquitoes was recorded. All the mosquitoes were collected and removed from the chamber. After 24 hours, the number of dead mosquitoes was recorded. The same human subject was used for all assessments.
The results shown in the Table 2 are the means of four trials.
Percentage landing inhibition refers to the number of mosquitoes which landed on the subject in the absence of any treatment (untreated control), minus the number of mosquitoes which landed on the subject in the presence of a coil treatment, divided by the number of mosquitoes which landed on the subject in the absence of any treatment, expressed as a percentage. Landing inhibition was assessed from 10 to 15 minutes exposure of the Aedes aegypti mosquitoes to each burning coil treatment.
Percentage bite inhibition refers to the number of mosquitoes which probed or attempted to bite the subject in the absence of any treatment (untreated control), minus the number of mosquitoes which attempted to bite the subject in the presence of a coil treatment, divided by the number of mosquitoes which attempted to bite the subject in the absence of any treatment, expressed as a percentage. It will be appreciated that, as mosquitoes must first land before attempting to bite, of necessity, percentage bite inhibition will always be lower than or equal to percentage landing inhibition. Bite inhibition was assessed from 10 to 15 minutes exposure of the Aedes aegypti mosquitoes to each burning coil treatment.
Knockdown refers to mosquitoes present on the floor of the chamber after the 15 minute trial, which were either dead, moribund, or incapacitated (i.e. unable to fly off the floor of the chamber). […]

[3] = test system: Culex quinquefasciatus; experiment: Burning coil trial with mosquitoes confined in a small cage in the chamber, subject's arm inserted: landing/bite inhibition, knockdown, 24 hour mortality; assay type: in vivo; conditions: caged Culex quinquefasciatus; for % KD (15 mins) / % bite inhibition / % landing inhibition: 15 minutes exposure
Experimental: The trial detailed in Example 2 was repeated against the much more difficult to kill Culex quinquefasciatus mosquitoes. The methodology used was similar to that employed for Aedes aegypti described above, with the following variations.
One hundred female and a variable number of male Cx. quinquefasciatus were confined in a small cage which was placed in the chamber 5 minutes after the coil treatment had been ignited. For this species of mosquito, the subject's arm was inserted into the cage for determinations of landing and biting rates. The reasons for these changes in methodology compared to those used for Ae. aegypti was because Cx. quinquefasciatus are much weaker biters. This meant that satisfactory biting rates could only be achieved by confining them to a small volume.
Percentage landing inhibition, percentage bite inhibition, percentage knockdown and percentage mortality are as defined above. […] As Cx. quinquefasciatus is a more robust mosquito species the lower level of mortality after 15 minutes exposure when compared with the Ae. aegypti mosquitoes was expected.

[4] = Comparison of physical properties of pyrethroids (The Pesticide Manual); assay type: physicochemical; conditions: ratio of the cited vapour pressures
Description: The present inventors compared some physical properties of bifenthrin with those of other residual pyrethroids.

[5] = burning coil with 0.035% imiprothrin
[6] = burning coil with 0.02% bifenthrin
[7] = burning coil with 0.05% bifenthrin
[8] = burning coil with 0.10% bifenthrin
[9] = burning coil with 0.056% bioresmethrin
[10] = burning coil with 0.3% cypermethrin
[11] = burning coil with 0.07% deltamethrin
[12] = burning coil with 0.705% permethrin
[13] = burning coil with 0.25% d-allethrin
[14] = burning coil with 0.228% d-phenothrin

Structure (SMILES): C#CCN1CC(=O)N(COC(=O)[C@@H]2C(C=C(C)C)C2(C)C)C1=O (mixture of isomers) [Imiprothrin, imiprothrin]
- Vapour Pressure ([1]; 25° C.): 0.0018 mPa
- % KD (15 mins) [2, 5]: 1%
- 24 hour % mortality (15 mins exposure) [2, 5]: 7%
- % bite inhibition [2, 5]: 34%
- % landing inhibition [2, 5]: 34%

Structure (SMILES): Cc1c(COC(=O)[C@H]2[C@@H](/C=C(\Cl)C(F)(F)F)C2(C)C)cccc1-c1ccccc1 (racemic) [Bifenthrin, 2-methylbiphenyl-3-ylmethyl (Z)-(1RS,3RS)-3-(2-chloro-3,3,3-trifluoroprop-1-enyl)-2,2-dimethylcyclopropanecarboxylate]
- 24 hour % mortality (15 mins exposure) [3, 6]: 9%
- % KD (15 mins) [3, 6]: 1%
- % bite inhibition [3, 6]: 96%
- % landing inhibition [3, 6]: 86%
- 24 hour % mortality (15 mins exposure) [3, 7]: 27%
- % KD (15 mins) [3, 7]: 3%
- % bite inhibition [3, 7]: 95%
- % landing inhibition [3, 7]: 85%
- 24 hour % mortality (15 mins exposure) [3, 8]: 39%
- % KD (15 mins) [3, 8]: 4%
- % bite inhibition [3, 8]: 99%
- % landing inhibition [3, 8]: 86%
- Vapour Pressure ([1]; 25° C.): 0.024 mPa
- % KD (15 mins) [2, 6]: 15%
- 24 hour % mortality (15 mins exposure) [2, 6]: 78%
- % bite inhibition [2, 6]: 95%
- % landing inhibition [2, 6]: 80%
- % KD (15 mins) [2, 7]: 31%
- 24 hour % mortality (15 mins exposure) [2, 7]: 94%
- % bite inhibition [2, 7]: 99%
- % landing inhibition [2, 7]: 87%
- % KD (15 mins) [2, 8]: 30%
- 24 hour % mortality (15 mins exposure) [2, 8]: 96%
- % bite inhibition [2, 8]: 100%
- % landing inhibition [2, 8]: 92%

Structure (SMILES): CC(C)=C[C@@H]1[C@@H](C(=O)OCc2coc(Cc3ccccc3)c2)C1(C)C [Bioresmethrin, bioresmethrin]
- vapour pressure relative to bifenthrin [4]: 775 times
- Vapour Pressure ([1]; 25° C.): 18.6 mPa
- % KD (15 mins) [2, 9]: 41%
- 24 hour % mortality (15 mins exposure) [2, 9]: 23%
- % bite inhibition [2, 9]: 99%
- % landing inhibition [2, 9]: 96%

Structure (SMILES): CC1(C)C(C=C(Cl)Cl)C1C(=O)OC(C#N)c1cccc(Oc2ccccc2)c1 (stereo not drawn) [Cypermethrin, cypermethrin]
- Vapour Pressure ([1]; 20° C.): 0.0002 mPa
- % KD (15 mins) [2, 10]: 10%
- 24 hour % mortality (15 mins exposure) [2, 10]: 56%
- % bite inhibition [2, 10]: 73%
- % landing inhibition [2, 10]: 70%

Structure (SMILES): CC1(C)[C@H](C(=O)O[C@H](C#N)c2cccc(Oc3ccccc3)c2)[C@@H]1C=C(Br)Br [Deltamethrin, deltamethrin]
- Vapour Pressure ([1]; 25° C.): 0.0000124 mPa
- % KD (15 mins) [2, 11]: 0%
- 24 hour % mortality (15 mins exposure) [2, 11]: 12%
- % bite inhibition [2, 11]: 57%
- % landing inhibition [2, 11]: 57%

Structure (SMILES): CC1(C)C(C=C(Cl)Cl)C1C(=O)OCc1cccc(Oc2ccccc2)c1 (stereo not drawn) [Permethrin, permethrin]
- Vapour Pressure ([1]; 20° C.): 0.0025 mPa
- % KD (15 mins) [2, 12]: 35%
- 24 hour % mortality (15 mins exposure) [2, 12]: 55%
- % bite inhibition [2, 12]: 85%
- % landing inhibition [2, 12]: 8%

Structure (SMILES): C=CCC1=C(C)C(OC(=O)C2C(C=C(C)C)C2(C)C)CC1=O (stereo not drawn) [d-Allethrin, d-allethrin]
- 24 hour % mortality (15 mins exposure) [3, 13]: 2%
- % KD (15 mins) [3, 13]: 7%
- % bite inhibition [3, 13]: 94%
- % landing inhibition [3, 13]: 87%
- Vapour Pressure ([1]; 21° C.): 0.16 mPa
- % KD (15 mins) [2, 13]: 35%
- 24 hour % mortality (15 mins exposure) [2, 13]: 7%
- 24 hour % mortality (15 mins exposure) ([2]; burning coil with 0.25% d-allethrin, listed as d-allethrin): no different from the untreated control
- % bite inhibition [2, 13]: 100%
- % landing inhibition [2, 13]: 98%

Structure (SMILES): CC(C)=CC1C(C(=O)OCc2cccc(Oc3ccccc3)c2)C1(C)C (stereo not drawn) [d-Phenothrin, d-phenothrin]
- Vapour Pressure ([1]; 21.4° C.): 0.019 mPa
- % KD (15 mins) [2, 14]: 39%
- 24 hour % mortality (15 mins exposure) [2, 14]: 24%
- % bite inhibition [2, 14]: 100%
- % landing inhibition [2, 14]: 98%
